{"source": "patent US20190231757A1", "about": "“COMBINATION OF SPLEEN TYROSINE KINASE INHIBITORS AND OTHER THERAPEUTIC AGENTS” (Takeda Pharmaceutical Company Limited, priority 2016, published 2019)", "key": {"[1]": {"test_system": "OCI-Ly10 human lymphoma xenografts", "assay": "Antitumor activity in SCID mice bearing OCI-Ly10 human lymphoma xenografts, lenalidomide combination (Example 10)", "type": "in vivo, mouse", "conditions": "alone or combined"}, "[2]": {"conditions": "Day 0 to Day 21; Compound A 60 mg/kg; lenalidomide 10 mg/kg; alone or combined"}, "[3]": {"test_system": "TMD8 DLBCL xenografts", "assay": "Antitumor activity in CB17 SCID mice bearing TMD8 DLBCL xenografts, bendamustine combination (Example 3)", "type": "in vivo, mouse", "conditions": "bendamustine 1 mg/kg IV BIW, alone or combined, Day 14"}, "[4]": {"test_system": "Ly19 xenografts", "assay": "Antitumor activity in SCID mice bearing Ly19 xenografts, bendamustine combination (Example 4)", "type": "in vivo, mouse", "conditions": "for Mean Tumor Volume (mm^3) ± SEM at Day 14 / TGI (%): Day 14; for dAUC: vs vehicle"}, "[5]": {"test_system": "OCI-Ly10 human DLBCL xenografts", "assay": "Antitumor activity in SCID mice bearing OCI-Ly10 human DLBCL xenografts, ibrutinib or bendamustine combination (Example 5)", "type": "in vivo, mouse", "conditions": "Day 21, Compound A 60 mg/kg PO QD, ibrutinib 6 mg/kg PO QD, bendamustine 1 mg/kg IV BIW (6 doses), alone or combined with Compound A"}, "[6]": {"test_system": "OCI-Ly10 human lymphoma xenografts", "assay": "Antitumor activity in SCID mice bearing OCI-Ly10 human lymphoma xenografts, bendamustine and rituximab (Example 6)", "type": "in vivo, mouse", "conditions": "Day 21; Compound A 30 mg/kg PO QD x21; bendamustine 1 mg/kg IV BIW; rituximab 1 mg/kg IV QW x3; alone or combined"}, "[7]": {"conditions": "Day 0 to Day 21; Compound A 30 mg/kg; bendamustine 1 mg/kg; rituximab 1 mg/kg; alone or combined"}, "[8]": {"assay": "Body weight and tolerability, TMD8 bendamustine study (Example 3)", "conditions": "Compound A 60 mg/kg PO QD 14 d, alone or combined"}, "[9]": {"assay": "Body weight and tolerability, Ly19 bendamustine study (Example 4)", "conditions": "for body weight Change (%), Day 3: Day 3 vs Day 0; for body weight Change (%), Day 7: Day 7 vs Day 0; for body weight Change (%), Day 10: Day 10 vs Day 0; for body weight Change (%), Day 14: Day 14 vs Day 0"}, "[10]": {"conditions": "Compound A 60 mg/kg PO QD x14, bendamustine 1.0 mg/kg IV BIW x2, alone or combined"}, "[11]": {"conditions": "bendamustine 2.0 mg/kg IV BIW x2, alone or with Compound A 60 mg/kg PO QD x14"}, "[12]": {"conditions": "Compound A 60 mg/kg, bendamustine 1.0 mg/kg, alone or combined"}, "[13]": {"conditions": "bendamustine 2.0 mg/kg, alone or with Compound A 60 mg/kg"}}}
{"compound": "Nc1cccc2c1CN(C1CCC(=O)NC1=O)C2=O", "note": "(centres unmarked) [lenalidomide]", "values": [{"measurement": "TGI", "setting": "[1]; Day 21, Compound A 60 mg/kg PO QD x21, lenalidomide 10 mg/kg PO QD x21", "value": 21.1, "unit": "%"}, {"measurement": "ΔAUC", "setting": "[1]; vs vehicle, Compound A 60 mg/kg, lenalidomide 10 mg/kg", "value": "15.2 (p = 0.014)"}, {"measurement": "Mean maximum % BWL", "setting": "[2]", "value": 0, "unit": "%"}]}
{"compound": "Cn1c(CCCC(=O)O)nc2cc(N(CCCl)CCCl)ccc21", "note": "[bendamustine]", "values": [{"measurement": "Mean Tumor Volume (mm^3) ± SEM", "setting": "[3]; Compound A 60 mg/kg PO QD 14 d", "value": "1,529.2 ± 275.9 mm^3"}, {"measurement": "T/C", "setting": "[3]; Compound A 60 mg/kg PO QD", "value": 0.87}, {"measurement": "TGI (%)", "setting": "[3]; Compound A 60 mg/kg PO QD", "value": 13.4, "unit": "%"}, {"measurement": "Mean Tumor Volume (mm^3) ± SEM at Day 14", "setting": "[4]; [10]", "value": "2092.9 ± 175.8", "unit": "mm^3"}, {"measurement": "TGI (%)", "setting": "[4]; [10]", "value": 16.2, "unit": "%"}, {"measurement": "Mean Tumor Volume (mm^3) ± SEM at Day 14", "setting": "[4]; [11]", "value": "2029.8 ± 248.8", "unit": "mm^3"}, {"measurement": "TGI (%)", "setting": "[4]; [11]", "value": 18.7, "unit": "%"}, {"measurement": "dAUC", "setting": "[4]; [12]", "value": 10.9}, {"measurement": "dAUC", "setting": "[4]; [13]", "value": 11.9}, {"measurement": "TGI", "setting": "[5]", "value": 43.7, "unit": "%"}, {"measurement": "TGI", "setting": "[5]; listed as Bendamustine", "value": 43.7, "unit": "%"}, {"measurement": "TGI", "setting": "[6]", "value": 49.7, "unit": "%"}, {"measurement": "Maximum mean % BWL", "setting": "[7]", "value": 0, "unit": "%"}, {"measurement": "% BW Change (Day Maximum)", "setting": "[8]; bendamustine 1 mg/kg IV BIW 14 d, maximum change within treatment period", "value": "13.1 (14) %"}, {"measurement": "Number of animals removed", "setting": "[8]; bendamustine 1 mg/kg IV BIW", "value": 0}, {"measurement": "animal body weight (g), Day 0", "setting": "[9]; Day 0, Compound A 60 mg/kg PO QD x14, bendamustine 1.0 mg/kg IV BIW x2, alone or combined, mean of 8", "value": 19.7, "unit": "g"}, {"measurement": "animal body weight (g), Day 3", "setting": "[9]; Day 3, Compound A 60 mg/kg, bendamustine 1.0 mg/kg, alone or combined", "value": 19.9, "unit": "g"}, {"measurement": "body weight Change (%), Day 3", "setting": "[9]; [12]", "value": "+0.9%"}, {"measurement": "body weight Change (%), Day 3", "setting": "[9]; [13]", "value": "+2.0%"}, {"measurement": "body weight Change (%), Day 7", "setting": "[9]; [12]", "value": "+3.7%"}, {"measurement": "body weight Change (%), Day 7", "setting": "[9]; [13]", "value": "+3.2%"}, {"measurement": "animal body weight (g), Day 10", "setting": "[9]; [12]", "value": 21.2, "unit": "g"}, {"measurement": "animal body weight (g), Day 10", "setting": "[9]; [13]", "value": 21.7, "unit": "g"}, {"measurement": "body weight Change (%), Day 10", "setting": "[9]; [12]", "value": "+7.7%"}, {"measurement": "body weight Change (%), Day 10", "setting": "[9]; [13]", "value": "+6.2%"}, {"measurement": "animal body weight (g), Day 14", "setting": "[9]; [12]", "value": 22.3, "unit": "g"}, {"measurement": "animal body weight (g), Day 14", "setting": "[9]; [13]", "value": 22.6, "unit": "g"}, {"measurement": "body weight Change (%), Day 14", "setting": "[9]; [12]", "value": "+13.1%"}, {"measurement": "body weight Change (%), Day 14", "setting": "[9]; [13]", "value": "+10.8%"}]}
